The IC50 is the concentration needed to halve the response being measured.

Counter-ions that a name gives are not always drawn.

The test deals with serotonin re-uptake (synaptosomal re-uptake of tritiated serotonin). The experiment in a line: Inhibition of synaptosomal re-uptake of tritiated serotonin. Format: biochemical. The note with it: in vitro; nM of test compound that inhibits uptake by 50%; read-out: SUI (Serotonin Uptake Inhibition potency), in vitro IC50. The protocol:
Determination of endogenous monoaminergic re-uptake inhibition values for serotonin was accomplished using test methods described by P. Skolnick, et al., Br. J. Pharmacology, (1985), 86, pp. 637-644; with only minor modifications. In vitro IC50 (nM) test values were determined for representative compounds of Formula I based on their inhibition of synaptosomal re-uptake of tritiated serotonin. Test data IC50 values lower than 500 nM are considered to reflect activity as an inhibitor of serotonin re-uptake.
For `CN(CCCN1CC=C(c2cccc3ccccc23)CC1)c1cccc(C(F)(F)F)n1` [Example 18, 3,6-dihydro-N-methyl-N-(6-trifluoromethyl-2-pyridinyl)-4-(1-naphthalenyl)-1(2H)-pyridinepropanamine fumarate], the IC50 is below 100 nM.

Take `CN(CCCN1CC=C(c2cccc3ccccc23)CC1)c1ccc(Cl)cn1` [Example 17, 3,6-dihydro-N-methyl-N-(5-chloro-2-pyridinyl)-4-(1-naphthalenyl)-1(2H)-pyridinepropanamine fumarate]: the IC50 was below 10 nM.

On to `COc1cncnc1NCCN1CC=C(c2cccc3ccccc23)CC1` [Example 26, 3.6-dihydro-4-(1-naphthalenyl)-N-(5-methoxy-4-pyrimidinyl)-1(2H)-pyridineethanamine fumarate], for which the IC50 was below 100 nM.

For the compound `COc1nccnc1NCCCN1CC=C(c2cccc3ccccc23)CC1` [Example 31, 3,6-dihydro-4-(1-naphthalenyl)-N-(3-methoxy-2-pyrazinyl)-1(2H)-pyridinepropanamine fumarate], the IC50 was below 10 nM.

In the case of `CN(CCCN1CC=C(c2cccc3ccccc23)CC1)c1cc(Cl)ccn1` [Example 19, 3,6.dihydro-N-methyl-N-(4-chloro-2-pyridinyl)-4-(1-naphthalenyl)-1(2H)-pyridinepropanamine], the IC50 was below 100 nM.

For `Clc1ccc(NCCCN2CC=C(c3cccc4ccccc34)CC2)nc1` [Example 36, 3,6-dihydro-N-(5-chloro-2-pyridinyl)-4-(1-naphthalenyl)-1(2H)-pyridinepropanamine fumarate], the IC50 is below 10 nM.

On to `Clc1nccnc1NCCCN1CC=C(c2cccc3ccccc23)CC1` [Example 30, 3,6-dihydro-4-(1-naphthalenyl)-N-(3-chloro-2-pyrazinyl)-1(2H)-pyridinepropanamine fumarate], for which the IC50 is below 10 nM.

For `C1=C(c2cccc3ccccc23)CCN(CCCNc2cccc3ccccc23)C1` [Example 39, 3,6-dihydro-N-(1-naphthalenyl)-4-(1-naphthalenyl)-1(2H)-pyridinepropanamine fumarate], the IC50 was below 10 nM.

Turning to `COc1cnccc1NCCCN1CC=C(c2cccc3ccccc23)CC1` [Example 29, 3,6-dihydro:4-(1-naphthalenyl)-N-(3-methoxy-4-pyridinyl)-1(2H)-pyridinepropanamine fumarate], the IC50 is below 100 nM.

Consider `COc1cncnc1NCCCCN1CC=C(c2cccc3ccccc23)CC1` [Example 32, 3,6-dihydro-N-(5-methoxy-4-pyrimidinyl)-4-(1-naphthalenyl)-1(2H)-pyridinebutanamine fumarate], for which the IC50 was below 100 nM.

As for `FC(F)(F)c1cccc(NCCCN2CC=C(c3cccc4ccccc34)CC2)c1` [Example 42, 3,6-dihydro-N-(3-trifluoromethylphenyl)-4-(1-naphthalenyl)-1(2H)-pyridinepropanamine fumarate], the half-maximal inhibitory concentration (IC50) is below 100 nM.

`COc1cncnc1N(C)CCCN1CC=C(c2cccc3ccccc23)CC1` [Example 21, 3,6-dihydro-N-(5-methoxy-4-pyrimidinyl)-N-methyl-4-(1-naphthalenyl)-1(2H)-pyridinepropanamine fumarate]: the IC50 is below 10 nM.

Consider `COc1cncnc1NCCCN1CC=C(c2cccc3ccc(Cl)cc23)CC1` [Example 25, 3,6-dihydro-4-(7-chloro-1-naphthalenyl)-N-(5-methoxy-4-pyrimidinyl)-1(2H)-pyridinepropanamine fumarate], for which the IC50 was below 500 nM.

Turning to `COc1ccccc1NCCCN1CC=C(c2cccc3ccccc23)CC1` [Example 40, 3,6-dihydro-N-(2-methoxyphenyl)-4-(1-naphthalenyl)-1-(2H)-pyridinepropanamine fumarate], the IC50 was below 10 nM.

For the compound `CN(CCCN1CC=C(c2cccc3ccccc23)CC1)c1cc(C(F)(F)F)ccn1` [Example 16, 3,6-dihydro-N-methyl-N-(4-trifluoromethyl-2-pyridinyl)-4-(1-naphthalenyl)-1(2H)-pyridinepropanamine fumarate], the IC50 was below 100 nM.

`COc1cccnc1N(C)CCCN1CC=C(c2cccc3ccccc23)CC1` [Example 14, 3,6-dihydro-N-(3-methoxy-2-pyridinyl)-N-methyl-4-(1-naphthalenyl)-1(2H)-pyridinepropanamine fumarate]: the IC50 is below 100 nM.

For `COc1cncnc1NCCCN1CC=C(c2cccc3ccccc23)CC1` [Example 27, 3.6-dihydro-4-(1-naphthalenyl)-N-(5-methoxy-4-pyrimidinyl)-1(2H)-pyridinepropanamine hydrochloride], the IC50 was below 10 nM.

For the compound `COc1cccnc1NCCCN1CC=C(c2cccc3ccccc23)CC1` [Example 33, 3,6-dihydro-N-(3-methoxy-2-pyridinyl)-4-(1-naphthalenyl)-1(2H)pyridinepropanamine fumarate], the IC50 was below 10 nM.

For `COc1cncnc1NCCCN1CCC(c2cccc3ccccc23)CC1` [Example 38, 4-(1-naphthalenyl)-N-(5-methoxy-4-pyrimidinyl)-1-piperidinepropanaminefumarate], the IC50 was below 10 nM.

As for `CCOc1cccnc1NCCCN1CC=C(c2cccc3ccccc23)CC1` [Example 34, 3,6-dihydro-N-(3-ethoxy-2-pyridinyl)-4-(1-naphthalenyl)-1(2H)-pyridinepropanamine fumarate], the IC50 was below 10 nM.

On to `CCOc1cccnc1N(C)CCCN1CC=C(c2cccc3ccccc23)CC1` [Example 15, 3,6-dihydro-N-(3-ethoxy-2-pyridinyl)-N-methyl-4-(1-naphthalenyl)-1(2H)-pyridinepropanamine fumarate], for which the IC50 is below 100 nM.

Take `CCOc1cncnc1NCCCN1CC=C(c2cccc3ccccc23)CC1` [Example 28, 3,6-dihydro-4-(1-naphthalenyl)-N-(5-ethoxy-4-pyrimidinyl)-1-(2H)-pyridinepropanamine fumarate]: the half-inhibitory concentration (IC50) was below 10 nM.

For `FC(F)(F)c1ccnc(NCCCN2CC=C(c3cccc4ccccc34)CC2)c1` [Example 37, 3,6dihydro-N-(4-trifluromethyl-2-pyridinyl)-4-(1-napthalenyl-1(2H)-pyridinepropanamine fumarate], the IC50 was below 100 nM.

With `CCN(CCCN1CC=C(c2cccc3ccccc23)CC1)c1ncncc1OC` [Example 22, 3,6-dihydro-N-(5-methoxy-4-pyrimidinyl)-N-ethyl-4-(1-naphthalenyl)-1(2H)-pyridinepropanamine fumarate], the IC50 was below 10 nM.

On to `Clc1cccc(NCCCN2CC=C(c3cccc4ccccc34)CC2)c1` [Example 41, 3,6-dihydro-N-(3-chlorophenyl)-4-(1-naphthalenyl)-1(2H)-pyridinepropanamine fumarate], for which the IC50 is below 100 nM.

Turning to `COc1cncnc1NCCCN1CC=C(c2cccc3ccc(F)cc23)CC1` [Example 24, 3,6-dihydro-4-(7-fluoro-1-naphthalenyl)-N-(5-methoxy-4-pyrimidinyl-1(2H)-pyridinepropanamine fumarate], the IC50 is below 500 nM.

For `COc1ccc2cccc(C3=CCN(CCCNc4ncncc4OC)CC3)c2c1` [Example 23, 3,6-dihydro-4-(7-methoxy-1-naphthalenyl)-N-(5-methoxy-4-pyrimidinyl)-1(2H)-pyridinepropanamine fumarate], the IC50 is below 100 nM.

For `CN(CCCN1CC=C(c2cccc3ccccc23)CC1)c1ccnc(Cl)c1` [Example 20, 3,6-dihydro-N-methyl-N-(2-chloro-4-pyridinyl)-4-(1-naphthalenyl)-1(2H)-pyridinepropanamine fumarate], the half-maximal inhibitory concentration (IC50) was below 10 nM.

Take `FC(F)(F)c1cccc(NCCCN2CC=C(c3cccc4ccccc34)CC2)n1` [Example 35, 3,6-dihydro-N-(6-trifluoromethyl-2-pyridinyl)-4-(1-napthalenyl)-1(2H)-pyridinepropanamine fumarate]: the IC50 was below 100 nM.

Source of the values: US5472966A, “Antidepressant heteroarylaminoalkyl derivatives of naphthyl-monazines” (Bristol-Myers Squibb Company, priority 1995, dated 1995).
